# Reference: patent publication US20240210412A1, “SULFONYL-TRIAZOLE COMPOUNDS USEFUL AS LIGANDS AND INHIBITORS OF PROSTAGLANDIN REDUCTASE 2” (University of Virginia Patent Foundation, priority 2021, published 2024)
# Tests used:
# Assay in all cases: SILAC LC-MS ABPP
# Assay type in all cases: cell-based
# Q96AE4 = molecular target: T1, Q96AE4 (Homo sapiens, UniProt Q96AE4); conditions: 25 μM 2 h, live DM93 cells
# T1 construct: endogenous in cells; host or cells: DM93 cells (SILAC), treated live; soluble proteome analysed
# T1 sequence (Q96AE4 whole entry): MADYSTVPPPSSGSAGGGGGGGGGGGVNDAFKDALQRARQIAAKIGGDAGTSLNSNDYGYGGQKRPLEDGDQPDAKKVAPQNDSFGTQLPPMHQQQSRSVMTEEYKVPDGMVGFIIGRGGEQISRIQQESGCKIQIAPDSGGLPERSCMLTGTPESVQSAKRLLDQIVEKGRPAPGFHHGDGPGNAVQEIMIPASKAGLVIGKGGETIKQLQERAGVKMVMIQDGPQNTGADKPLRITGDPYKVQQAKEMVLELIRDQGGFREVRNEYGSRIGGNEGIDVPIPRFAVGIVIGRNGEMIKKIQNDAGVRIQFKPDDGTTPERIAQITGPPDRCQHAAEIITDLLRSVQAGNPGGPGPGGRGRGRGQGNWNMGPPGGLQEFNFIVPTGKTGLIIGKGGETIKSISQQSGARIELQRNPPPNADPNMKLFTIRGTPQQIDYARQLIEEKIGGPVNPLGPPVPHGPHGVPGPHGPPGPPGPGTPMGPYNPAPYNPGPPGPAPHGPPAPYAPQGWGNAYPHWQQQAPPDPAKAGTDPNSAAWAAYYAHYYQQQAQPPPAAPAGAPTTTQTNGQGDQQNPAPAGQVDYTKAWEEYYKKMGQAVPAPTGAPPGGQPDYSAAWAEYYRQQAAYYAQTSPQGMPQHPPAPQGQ
# Method: (§1) Cells were grown to 90-95% confluence before being washed once with warm, sterile DPBS (1×, 5 mL), followed by addition of 10 mL of serum-free media (supplemented with 1% L-glutamine) containing either DMSO or SuTEx fragment (in DMSO) was added. Light cells were treated with DMSO vehicle while the heavy cells were treated with DMSO or SuTEx fragment (in DMSO) and incubated for 2 hrs. After 2 hrs, the cells were treated with SuTEx alkyne probe (HHS475, 10 μL of 1000× DMSO stock) and incubated for an additional 2 hrs. The media was aspirated and cells washed with cold PBS (5 mL) and harvested. Cells were spun at 500×g for 5 min at 4° C. followed by removal of supernatant. Pellets were resuspended in 1 mL of cold DPBS and spun at 1,400×g for 3 min at 4° C. followed by removal of supernatant. The cells were lysed in PBS by sonication and fractionated (100,000×g, 45 min, 4° C.).The light and heavy soluble fractions were diluted to 2.3 mg/mL in PBS and 432 μL were used for analysis (1 mg total protein). The probe-modified proteomes were conjugated to desthiobiotin-PEG3-azide (10 μl of 10 mM stock in DMSO; 200 μM final concentration) using TCEP (10 μl of fresh 50 mM stock in water, 1 mM final concentration), TBTA ligand (33 μl of a 1.7 mM 4:1 t-butanol/DMSO stock, 100 μM final concentration) and CuSO4 (10 μl of 50 mM stock, 1 mM final concentration). Samples were vortexed to mix and incubated for 1 hr at room temperature. The heavy and light proteomes were mixed 1:1 and the subsequent steps, including LC-MS/MS data analysis, were performed as previously described^[8a].
# (§2) Coupling cell-based screens with chemical proteomics can facilitate the identification of target protein and binding sites that engage and are irreversibly modified by covalent ligands^[12]. In these assays, covalent ligands block SuTEx activity-based probe (ABP) labeling at protein sites, and the competition of probe labeling can be used to quantify potency and selectivity across the proteome^[10a]. To facilitate quantitative chemical proteomics, DM93 melanoma cells were cultured using stable isotopic labeling by amino acids in cell culture (SILAC)^[13]. Cells cultured in “light” media were treated with dimethyl sulfoxide (DMSO) vehicle while cells cultured in “heavy” media were treated with SuTEx ligand (25 μM, 2 hours, 37° C.). Next, cells were treated with HHS-475 probe (100 μM, 2 hours, 37° C.) followed by lysis and processing of proteomes for analysis. Probe-modified proteins from the soluble fraction were conjugated to a desthiobiotin-azide tag by copper-catalyzed azide-alkyne cycloaddition (CuAAC)^[14] followed by mixing of the light and heavy proteomes. The combined proteomes were digested with trypsin protease to produce probe-modified peptides, followed by enrichment and purification by avidin affinity chromatography. Probe-modified peptides were resolved, identified, and quantified by high-resolution liquid chromatography-tandem mass spectrometry (LC-MS/MS). Resultant data were analyzed as previously described^[8a, 10a]. Table 2, below, lists sites of modification targeted by sulfonyl-triazole compounds HHS-0101, HHS-0201, HHS-0301, HHS-0401, and HHS-0701. The format of the table is as follows: protein Uniprot accession number (see uniprot.org); tyrosine site (amino acid position) modified; treatment (sulfonyl-triazole compound identification number, followed by Y (where if multiple compounds modify the same site, the compounds are separated by vertical lines).
# Q93052 = molecular target: T2, Q93052 (Homo sapiens, UniProt Q93052); conditions: 25 μM 2 h, live DM93 cells
# T2 construct: endogenous in cells; host or cells: DM93 cells (SILAC), live-cell treatment
# T2 sequence (Q93052 1-612): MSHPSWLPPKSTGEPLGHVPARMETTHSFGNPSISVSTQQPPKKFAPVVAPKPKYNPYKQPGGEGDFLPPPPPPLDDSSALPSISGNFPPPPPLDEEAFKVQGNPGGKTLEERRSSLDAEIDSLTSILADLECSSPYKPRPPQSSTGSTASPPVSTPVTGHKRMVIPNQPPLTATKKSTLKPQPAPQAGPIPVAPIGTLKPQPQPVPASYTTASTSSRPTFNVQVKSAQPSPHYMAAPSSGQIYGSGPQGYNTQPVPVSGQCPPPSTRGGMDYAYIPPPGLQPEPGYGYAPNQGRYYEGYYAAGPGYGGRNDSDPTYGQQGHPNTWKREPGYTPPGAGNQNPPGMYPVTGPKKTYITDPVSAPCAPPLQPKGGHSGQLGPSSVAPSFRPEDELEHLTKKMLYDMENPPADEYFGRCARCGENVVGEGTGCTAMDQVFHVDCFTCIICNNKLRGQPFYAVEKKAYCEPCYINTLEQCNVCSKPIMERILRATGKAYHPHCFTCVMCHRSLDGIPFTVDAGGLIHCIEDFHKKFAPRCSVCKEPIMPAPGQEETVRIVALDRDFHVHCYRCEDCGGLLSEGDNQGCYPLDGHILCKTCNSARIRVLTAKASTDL
# Method: as §1, §2
# O75150 = molecular target: T3, O75150 (Homo sapiens, UniProt O75150); conditions: 25 μM 2 h, live DM93 cells
# T3 construct: endogenous in cells; host or cells: DM93
# T3 sequence (O75150 whole entry): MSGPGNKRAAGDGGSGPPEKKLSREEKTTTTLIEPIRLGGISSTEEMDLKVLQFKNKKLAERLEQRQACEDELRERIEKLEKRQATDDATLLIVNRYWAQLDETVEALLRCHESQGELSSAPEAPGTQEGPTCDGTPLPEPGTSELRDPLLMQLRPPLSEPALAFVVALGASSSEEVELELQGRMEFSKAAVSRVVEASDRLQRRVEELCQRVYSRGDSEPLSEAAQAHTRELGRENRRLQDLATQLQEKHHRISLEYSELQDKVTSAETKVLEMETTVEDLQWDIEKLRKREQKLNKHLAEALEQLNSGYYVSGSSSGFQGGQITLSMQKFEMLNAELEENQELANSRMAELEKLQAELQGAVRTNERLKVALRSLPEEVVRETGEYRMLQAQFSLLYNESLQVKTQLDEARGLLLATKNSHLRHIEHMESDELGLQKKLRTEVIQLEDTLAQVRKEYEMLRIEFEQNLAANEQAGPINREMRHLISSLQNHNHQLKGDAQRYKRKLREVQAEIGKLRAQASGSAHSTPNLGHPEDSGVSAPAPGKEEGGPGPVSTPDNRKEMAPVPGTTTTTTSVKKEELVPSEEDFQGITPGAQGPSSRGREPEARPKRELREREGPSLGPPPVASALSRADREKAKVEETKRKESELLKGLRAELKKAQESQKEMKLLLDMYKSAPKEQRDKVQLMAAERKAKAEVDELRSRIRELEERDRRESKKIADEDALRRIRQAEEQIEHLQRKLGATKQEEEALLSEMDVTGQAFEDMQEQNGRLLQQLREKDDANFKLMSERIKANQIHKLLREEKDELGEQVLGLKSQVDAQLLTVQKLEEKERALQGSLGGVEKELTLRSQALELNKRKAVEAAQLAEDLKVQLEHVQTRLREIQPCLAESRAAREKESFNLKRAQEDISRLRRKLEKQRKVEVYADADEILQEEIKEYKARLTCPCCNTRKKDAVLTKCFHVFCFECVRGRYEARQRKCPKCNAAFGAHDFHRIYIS
# Method: as §1, §2
# Q96AT1 = molecular target: T4, Q96AT1 (Homo sapiens, UniProt Q96AT1); conditions: 25 μM 2 h, live DM93 cells
# T4 construct: endogenous in cells; host or cells: DM93 cells (SILAC), treated live; soluble proteome analysed
# T4 sequence (Q96AT1 whole entry): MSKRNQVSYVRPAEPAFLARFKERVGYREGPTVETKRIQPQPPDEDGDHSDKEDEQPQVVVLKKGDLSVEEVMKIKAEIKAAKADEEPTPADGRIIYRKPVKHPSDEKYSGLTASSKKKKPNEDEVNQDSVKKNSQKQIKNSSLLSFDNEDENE
# Method: as §1, §2
# Q9Y6D5 = molecular target: T5, Q9Y6D5 (Homo sapiens, UniProt Q9Y6D5); conditions: 25 μM 2 h, live DM93 cells
# T5 construct: endogenous in cells; host or cells: DM93 cells (SILAC)
# Method: as §1, §2
# P11216 = molecular target: T6, P11216 (Homo sapiens, UniProt P11216); conditions: 25 μM 2 h, live DM93 cells
# T6 construct: endogenous in cells; host or cells: DM93 cells (SILAC)
# T6 sequence (P11216 whole entry): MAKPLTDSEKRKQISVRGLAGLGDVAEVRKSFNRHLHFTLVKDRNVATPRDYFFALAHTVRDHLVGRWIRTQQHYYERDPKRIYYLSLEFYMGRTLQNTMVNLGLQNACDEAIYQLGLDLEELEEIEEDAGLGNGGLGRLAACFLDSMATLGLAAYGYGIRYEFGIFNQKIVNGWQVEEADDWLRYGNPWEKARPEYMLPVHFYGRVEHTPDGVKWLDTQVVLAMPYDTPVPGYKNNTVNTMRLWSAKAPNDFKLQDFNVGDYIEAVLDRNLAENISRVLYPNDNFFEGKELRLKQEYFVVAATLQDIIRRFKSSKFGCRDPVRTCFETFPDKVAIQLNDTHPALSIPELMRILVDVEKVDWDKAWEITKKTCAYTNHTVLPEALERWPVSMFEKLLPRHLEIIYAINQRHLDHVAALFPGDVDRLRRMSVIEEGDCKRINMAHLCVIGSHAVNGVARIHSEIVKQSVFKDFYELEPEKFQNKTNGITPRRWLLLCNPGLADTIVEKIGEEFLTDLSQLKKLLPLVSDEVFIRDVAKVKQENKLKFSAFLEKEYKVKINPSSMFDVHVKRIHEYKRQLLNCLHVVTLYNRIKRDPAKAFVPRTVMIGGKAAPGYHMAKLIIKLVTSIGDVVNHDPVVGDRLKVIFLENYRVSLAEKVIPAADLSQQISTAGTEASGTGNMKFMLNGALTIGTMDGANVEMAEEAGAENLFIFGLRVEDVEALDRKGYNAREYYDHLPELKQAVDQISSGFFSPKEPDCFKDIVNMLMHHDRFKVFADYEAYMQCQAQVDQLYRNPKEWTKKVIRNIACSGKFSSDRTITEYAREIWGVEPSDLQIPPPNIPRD
# Method: as §1, §2
# [1] = molecular target: T7, Q8N8N7 (prostaglandin reductase 2, PTGR2) (Homo sapiens, UniProt Q8N8N7)
# T7 construct: endogenous in cells; host or cells: DM93 cells (SILAC), live-cell treatment
# T7 sequence (Q8N8N7 whole entry): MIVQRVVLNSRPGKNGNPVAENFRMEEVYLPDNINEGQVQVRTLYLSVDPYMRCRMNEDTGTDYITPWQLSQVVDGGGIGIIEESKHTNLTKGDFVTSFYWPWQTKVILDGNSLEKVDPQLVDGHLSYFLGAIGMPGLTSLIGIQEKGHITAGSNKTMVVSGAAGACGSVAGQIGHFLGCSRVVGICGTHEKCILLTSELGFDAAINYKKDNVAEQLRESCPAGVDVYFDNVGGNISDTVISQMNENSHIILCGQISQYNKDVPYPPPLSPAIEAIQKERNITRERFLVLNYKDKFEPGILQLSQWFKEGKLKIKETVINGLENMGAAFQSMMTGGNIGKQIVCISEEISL
# Method: as §1, §2
# Confirmatory studies were also performed on prostaglandin reductase 2 (PTGR2) because of its role in the reduction of the bioactive lipid, 15-keto-PGE2^[17]. […] The chemical proteomic studies also identified additional tyrosine sites (e.g. Y265) competed by HHS-0701 albeit to a lesser degree (SR<5) compared with Y100. […]
# Q04637 = molecular target: T8, Q04637 (Homo sapiens, UniProt Q04637); conditions: 25 μM 2 h, live DM93 cells
# T8 construct: performing SuTEx compound screening directly in cells; endogenous in cells; host or cells: DM93 cells (SILAC)
# T8 sequence (Q04637 whole entry): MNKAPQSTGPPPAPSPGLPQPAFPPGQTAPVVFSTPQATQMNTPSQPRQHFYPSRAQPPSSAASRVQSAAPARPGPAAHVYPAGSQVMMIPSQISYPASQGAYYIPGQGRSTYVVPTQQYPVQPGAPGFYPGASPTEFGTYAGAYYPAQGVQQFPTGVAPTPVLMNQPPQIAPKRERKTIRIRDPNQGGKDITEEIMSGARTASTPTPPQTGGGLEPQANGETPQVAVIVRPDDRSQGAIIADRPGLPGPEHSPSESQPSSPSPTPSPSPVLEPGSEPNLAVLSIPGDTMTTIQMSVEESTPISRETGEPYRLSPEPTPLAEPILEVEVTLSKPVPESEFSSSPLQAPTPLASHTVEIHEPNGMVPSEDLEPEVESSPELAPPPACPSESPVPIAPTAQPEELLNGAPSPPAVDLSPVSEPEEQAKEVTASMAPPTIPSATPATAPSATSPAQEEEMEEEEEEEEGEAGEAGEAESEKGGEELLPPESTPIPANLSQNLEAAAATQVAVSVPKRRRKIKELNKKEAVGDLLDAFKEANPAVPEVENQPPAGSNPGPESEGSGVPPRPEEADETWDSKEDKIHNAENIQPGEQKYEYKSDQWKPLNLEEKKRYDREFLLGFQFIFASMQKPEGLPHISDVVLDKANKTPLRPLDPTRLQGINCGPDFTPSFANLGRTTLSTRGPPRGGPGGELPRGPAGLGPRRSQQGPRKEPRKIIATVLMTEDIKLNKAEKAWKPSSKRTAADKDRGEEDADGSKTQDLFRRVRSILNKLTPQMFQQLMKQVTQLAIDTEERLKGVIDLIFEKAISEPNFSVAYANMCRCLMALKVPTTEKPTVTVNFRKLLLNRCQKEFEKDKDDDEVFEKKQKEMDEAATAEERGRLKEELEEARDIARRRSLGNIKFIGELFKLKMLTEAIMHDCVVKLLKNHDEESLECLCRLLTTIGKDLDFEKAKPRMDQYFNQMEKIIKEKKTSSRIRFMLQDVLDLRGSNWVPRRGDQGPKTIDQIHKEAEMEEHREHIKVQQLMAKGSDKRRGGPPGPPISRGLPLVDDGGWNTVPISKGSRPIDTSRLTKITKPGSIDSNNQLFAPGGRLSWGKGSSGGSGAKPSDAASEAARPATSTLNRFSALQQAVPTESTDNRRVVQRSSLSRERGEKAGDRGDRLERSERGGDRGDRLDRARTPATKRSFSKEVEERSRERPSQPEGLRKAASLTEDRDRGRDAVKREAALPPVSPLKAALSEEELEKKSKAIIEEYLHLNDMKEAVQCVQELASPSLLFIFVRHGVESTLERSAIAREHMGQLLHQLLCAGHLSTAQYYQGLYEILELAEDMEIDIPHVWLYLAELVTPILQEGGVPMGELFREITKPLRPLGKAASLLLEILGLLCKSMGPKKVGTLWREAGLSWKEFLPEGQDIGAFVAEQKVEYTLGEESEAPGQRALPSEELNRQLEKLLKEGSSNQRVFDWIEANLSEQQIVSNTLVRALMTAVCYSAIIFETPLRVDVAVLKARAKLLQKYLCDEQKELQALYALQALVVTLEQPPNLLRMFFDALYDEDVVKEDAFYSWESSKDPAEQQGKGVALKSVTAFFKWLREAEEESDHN
# Method: as §1, §2
# Q9Y520 = molecular target: T9, Q9Y520 (Homo sapiens, UniProt Q9Y520); conditions: 25 μM 2 h, live DM93 cells
# T9 construct: endogenous in cells; host or cells: DM93 cells (SILAC)
# Method: as §1, §2
smiles,measurement,setting,value
"O=C(NC1CC1)c1ccc(S(=O)(=O)n2cncn2)cc1 [HHS-0101, 4-((1H-1,2,4-triazol-1-yl)sulfonyl)-N-cyclopropylbenzamide]",liganded tyrosine site 438,Q96AE4,HHS0101.Y (tyrosine sites that showed >80% reductions (SR >5) in probe labeling in cells treated with compounds (liganded sites))
same,liganded tyrosine site 251,Q93052,HHS0101.Y|HHS0401.Y (tyrosine sites that showed >80% reductions (SR >5) in probe labeling in cells treated with compounds (liganded sites))
same,liganded tyrosine site 332,Q93052,HHS0101.Y (tyrosine sites that showed >80% reductions (SR >5) in probe labeling in cells treated with compounds (liganded sites))
same,liganded tyrosine site 928,O75150,HHS0101.Y (tyrosine sites that showed >80% reductions (SR >5) in probe labeling in cells treated with compounds (liganded sites))
same,liganded tyrosine site 9,Q96AT1,HHS0101.Y (tyrosine sites that showed >80% reductions (SR >5) in probe labeling in cells treated with compounds (liganded sites))
same,liganded tyrosine site 1632,Q9Y6D5,HHS0101.Y|HHS0301.Y|HHS0701.Y (tyrosine sites that showed >80% reductions (SR >5) in probe labeling in cells treated with compounds (liganded sites))
same,liganded tyrosine site 473,P11216,HHS0101.Y (tyrosine sites that showed >80% reductions (SR >5) in probe labeling in cells treated with compounds (liganded sites))
same,"SILAC ratio (SR), PTGR2 Y100","[1]; 25 μM 2 h, live DM93 cells",1.4
"O=C(NCC1CC1)c1ccc(S(=O)(=O)n2cncn2)cc1 [HHS-0201, 4-((1H-1,2,4-triazol-1-yl)sulfonyl)-N-(cyclopropylmethyl)benzamide]",liganded tyrosine site 103,Q04637,HHS0201.Y|HHS0301.Y|HHS0401.Y|HHS0701.Y (tyrosine sites that showed >80% reductions (SR >5) in probe labeling in cells treated with compounds (liganded sites))
same,liganded tyrosine site 26,Q9Y520,HHS0201.Y (tyrosine sites that showed >80% reductions (SR >5) in probe labeling in cells treated with compounds (liganded sites))
same,liganded tyrosine site 204,P11216,HHS0201.Y (tyrosine sites that showed >80% reductions (SR >5) in probe labeling in cells treated with compounds (liganded sites))
"O=C(NC1CCCCC1)c1ccc(S(=O)(=O)n2cncn2)cc1 [HHS-0301, 4-((1H-1,2,4-triazol-1-yl)sulfonyl)-N-cyclohexylbenzamide]",liganded tyrosine site 234,Q93052,HHS0301.Y|HHS0401.Y (tyrosine sites that showed >80% reductions (SR >5) in probe labeling in cells treated with compounds (liganded sites))
same,liganded tyrosine site 81,Q04637,HHS0301.Y (tyrosine sites that showed >80% reductions (SR >5) in probe labeling in cells treated with compounds (liganded sites))
same,liganded tyrosine site 104,Q04637,HHS0301.Y|HHS0701.Y (tyrosine sites that showed >80% reductions (SR >5) in probe labeling in cells treated with compounds (liganded sites))
same,liganded tyrosine site 258,O75150,HHS0301.Y (tyrosine sites that showed >80% reductions (SR >5) in probe labeling in cells treated with compounds (liganded sites))
"O=C(NCc1ccccc1)c1ccc(S(=O)(=O)n2cncn2)cc1 [HHS-0401, 4-((1H-1,2,4-triazol-1-yl)sulfonyl)-N-benzylbenzamide]",liganded tyrosine site 109,Q96AT1,HHS0401.Y (tyrosine sites that showed >80% reductions (SR >5) in probe labeling in cells treated with compounds (liganded sites))
same,liganded tyrosine site 2707,Q9Y520,HHS0401.Y (tyrosine sites that showed >80% reductions (SR >5) in probe labeling in cells treated with compounds (liganded sites))
same,liganded tyrosine site 97,Q9Y6D5,HHS0401.Y (tyrosine sites that showed >80% reductions (SR >5) in probe labeling in cells treated with compounds (liganded sites))
same,liganded tyrosine site 265,"[1]; 25 μM 2 h, live DM93 cells",HHS0401.Y (tyrosine sites that showed >80% reductions (SR >5) in probe labeling in cells treated with compounds (liganded sites))
"O=C(c1ccc(S(=O)(=O)n2cncn2)cc1)N1CCC(c2ccccc2)CC1 [HHS-0701, (4-((1H-1,2,4-triazol-1-yl)sulfonyl)phenyl)(4-phenylpiperidin-1-yl)methanone]",liganded tyrosine site 619,Q96AE4,HHS0701.Y (tyrosine sites that showed >80% reductions (SR >5) in probe labeling in cells treated with compounds (liganded sites))
same,"SILAC ratio (SR), PTGR2 Y100","[1]; 25 μM 2 h, live DM93 cells",11
same,"SILAC ratio (SR), PTGR2 Y265","[1]; 25 μM 2 h, live DM93 cells",< 5
same,liganded tyrosine site 100,"[1]; 25 μM 2 h, live DM93 cells",HHS0701.Y (tyrosine sites that showed >80% reductions (SR >5) in probe labeling in cells treated with compounds (liganded sites))
same,PTGR2 Y100 liganded,[1]; ligand-treated DM93 cells,~90%
